Details: 323.15 K, Liquid, Vibrating tube method

CCCCC(=O)OCC(COC(=O)CCCC)(COC(=O)CCCC)COC(=O)CCCC [pentaerythritol tetrapentanoate]
Details | mass density [kg/m3]
2620 kPa | 996.4
2660.6 kPa | 996.5
2696.9 kPa | 996.5
2718.7 kPa | 996.6
2740.2 kPa | 996.6
2766.8 kPa | 996.6
2789.3 kPa | 996.7
2812.2 kPa | 996.6
2835.1 kPa | 996.5
2863.3 kPa | 996.6
2886.9 kPa | 996.7
2911 kPa | 996.7
2989.9 kPa | 996.7
3015.4 kPa | 996.6
3041 kPa | 996.8
3072.2 kPa | 996.8
3098.9 kPa | 996.7
3127.4 kPa | 996.8
3156.2 kPa | 996.9
3188.1 kPa | 996.9
3211.7 kPa | 996.9
3262.5 kPa | 996.8
3273.9 kPa | 997
3286 kPa | 997.1
3299.4 kPa | 997
3310.7 kPa | 996.9
3322.8 kPa | 997
3337.8 kPa | 996.9
3347.6 kPa | 997
3361.4 kPa | 997.1
3373 kPa | 997
3399.5 kPa | 997
3411.5 kPa | 997.1
3423.8 kPa | 997.1
3438.5 kPa | 997.1
3453.3 kPa | 997.1
3522.2 kPa | 997
3637.3 kPa | 997.2
3714.9 kPa | 997.3
3733.1 kPa | 997.2
3751.4 kPa | 997.3
3769.8 kPa | 997.4
3791.1 kPa | 997.3
3809.5 kPa | 997.4
3828.4 kPa | 997.3
3846.7 kPa | 997.3
3869.1 kPa | 997.3
3887.6 kPa | 997.3
3909.9 kPa | 997.3
3929 kPa | 997.5
3947.9 kPa | 997.4
3967.4 kPa | 997.4
3987.2 kPa | 997.5
4010 kPa | 997.4
4029.3 kPa | 997.5
4049 kPa | 997.5
4072.7 kPa | 997.4
4092.3 kPa | 997.5
4112.7 kPa | 997.6
4137.3 kPa | 997.5
4158.1 kPa | 997.5
4179.1 kPa | 997.6
4200.2 kPa | 997.6
4225 kPa | 997.6
4246.8 kPa | 997.7
4268.4 kPa | 997.5
4290.2 kPa | 997.6
4316 kPa | 997.7
4337.7 kPa | 997.6
4359.8 kPa | 997.7
4382.3 kPa | 997.8
4409 kPa | 997.7
4431.7 kPa | 997.7
4454.9 kPa | 997.7
4478.1 kPa | 997.8
4506.5 kPa | 997.9
4529.8 kPa | 997.9
4554.2 kPa | 997.9
4579 kPa | 997.8
4607.9 kPa | 998
4632.1 kPa | 997.9
4657.2 kPa | 998
4688.4 kPa | 997.9
4714.7 kPa | 997.9
4741.5 kPa | 998
4773.2 kPa | 998
4800.4 kPa | 998
4827.4 kPa | 998
4855.4 kPa | 997.9
4889.5 kPa | 998.1
4918.2 kPa | 998.1
4946.4 kPa | 998.1
4975.1 kPa | 998.2
4978.1 kPa | 998.3
4995.6 kPa | 998.2
4997.5 kPa | 998.3
5038.8 kPa | 998.1
5039.2 kPa | 998.3
5039.4 kPa | 998.2
5040 kPa | 998.2
5040.7 kPa | 998.2
5041.6 kPa | 998.2
5042.1 kPa | 998.1
5042.6 kPa | 998.2
5044 kPa | 998.2
5052.3 kPa | 998.3
5059.4 kPa | 998.3
5066.5 kPa | 998.4
5073.8 kPa | 998.2
5082.4 kPa | 998.2
5089.7 kPa | 998.2
5097 kPa | 998.3
5105.8 kPa | 998.3
5113.1 kPa | 998.3
5120.5 kPa | 998.3
5128 kPa | 998.3
5134.7 kPa | 998.4
5142.3 kPa | 998.3
5150.8 kPa | 998.3
5158.4 kPa | 998.2
5166.2 kPa | 998.2
5174.9 kPa | 998.3
5182.5 kPa | 998.3
5189.9 kPa | 998.3
5197.3 kPa | 998.3
5206 kPa | 998.3
5213.8 kPa | 998.3
5221.7 kPa | 998.3
5229.5 kPa | 998.3
5238.5 kPa | 998.5
5246.1 kPa | 998.3
5254.1 kPa | 998.4
5261.5 kPa | 998.4
5270.5 kPa | 998.3
5278.7 kPa | 998.4
5287.8 kPa | 998.4
5295.3 kPa | 998.4
5303 kPa | 998.5
5312.6 kPa | 998.3
5320.7 kPa | 998.4
5329.2 kPa | 998.5
5336.8 kPa | 998.3
5345.1 kPa | 998.5
5352.9 kPa | 998.5
5362.7 kPa | 998.5
5370.9 kPa | 998.4
5379 kPa | 998.5
5388.7 kPa | 998.4
5397.1 kPa | 998.5
5405.1 kPa | 998.5
5413.1 kPa | 998.3
5422.9 kPa | 998.5
5431 kPa | 998.5
5439.2 kPa | 998.5
5449.6 kPa | 998.4
5457.5 kPa | 998.4
5465.6 kPa | 998.5
5473.9 kPa | 998.4
5483.8 kPa | 998.6
5491.6 kPa | 998.5
5499.5 kPa | 998.6
